In patent US10047105B2, “Gyrase inhibitors” (Merck Sharp & Dohme Corp., priority 2009, dated 2018):
In brackets after ≈: the same amount, converted by molar mass.

How the values were obtained:
[1] = system: S. aureus ATCC 13709; test: MIC, antibacterial potency, S. aureus; format: cell-based; details: S. aureus
[2] = system: S. pneumoniae ATCC 51916; test: MIC, S. pneumoniae; format: cell-based; details: S. pneumoniae

Row | MIC, SA [1] | MIC Spn52 [2] | SMILES
1 | 64 µg/mL (≈ 169 µM) | 64 µg/mL (≈ 169 µM) | CCOc1nc(Sc2cc(C(=O)O)ccn2)nc2[nH]c(CC)c(Cl)c12 [700,321]
2 | > 64 µg/mL | > 64 µg/mL | CCc1[nH]c2nc(Sc3nc(C(=O)O)cs3)nc(NC[C@H](C)O)c2c1Cl [700,322]
3 | > 64 µg/mL | > 64 µg/mL | CCc1[nH]c2nc(Sc3nc(C(=O)O)cs3)nc(NCCCn3ccnc3)c2c1Cl [700,323]
4 | > 64 µg/mL | 64 µg/mL (≈ 164 µM) | CCOc1nc(Sc2ccc(NC3CC3)nn2)nc2[nH]c(CC)c(Cl)c12 [700,324]
5 | > 64 µg/mL | > 64 µg/mL | CCNc1ccc(Sc2nc(OCC)c3c(Cl)c(CC)[nH]c3n2)nn1 [700,325]
6 | 32 µg/mL (≈ 73.6 µM) | 64 µg/mL (≈ 147 µM) | CCOc1nc(Sc2ccc(N3CCC(O)CC3)nn2)nc2[nH]c(CC)c(Cl)c12 [700,327]
7 | > 64 µg/mL | 64 µg/mL (≈ 135 µM) | CCc1[nH]c2nc(Sc3nc(C(=O)OC)c(Cl)s3)nc(OCC3CCC3)c2c1Cl [700,328]
8 | > 64 µg/mL | > 64 µg/mL | CCc1[nH]c2nc(Sc3nc(C(=O)O)cs3)nc(N3CC(O)C3)c2c1Cl [700,340]
9 | > 64 µg/mL | > 64 µg/mL | CCOc1nc(Sc2ncc3cccnc3n2)nc2[nH]c(CC)c(Cl)c12 [700,341]
10 | > 64 µg/mL | > 64 µg/mL | CCc1[nH]c2nc(Sc3nc(C(=O)O)cs3)nc(NCCCNS(C)(=O)=O)c2c1Cl [700,342]
11 | ≤ 0.5 µg/mL | 2 µg/mL (≈ 4.83 µM) | CCc1[nH]c2nc(Sc3cnc4cccnc4n3)nc(N3CC(O)C3)c2c1Cl [700,345]
12 | ≤ 0.5 µg/mL | ≤ 0.5 µg/mL | CCc1[nH]c2nc(Sc3cnc4cccnc4n3)nc(N3CC(O)C3)c2c1Br [700,346]
13 | 1 µg/mL (≈ 2.72 µM) | 8 µg/mL (≈ 21.7 µM) | CCOc1nc(Sc2cc(=O)[nH]c(=O)[nH]2)nc2[nH]c(CC)c(Cl)c12 [700,347, 6-(5-chloro-4-ethoxy-6-ethyl-7H-pyrrolo[2,3-d]pyrimidin-2-ylthio)pyrimidine-2,4(1H,3H)-dione]
14 | > 64 µg/mL | > 64 µg/mL | Cc1[nH]c2nc(Sc3cnc4cccnc4n3)nc(N3CC(O)C3)c2c1C [700,351]
15 | > 64 µg/mL | > 64 µg/mL | CCc1[nH]c2nc(Sc3nc4ncccc4c(=O)[nH]3)nc(N3CC(O)C3)c2c1Cl [700,353]
16 | > 64 µg/mL | > 64 µg/mL | CCc1[nH]c2nc(Sc3nc4ncccc4c(=O)[nH]3)nc(N3CC(O)C3)c2c1Br [700,358]
17 | 2 µg/mL (≈ 5.07 µM) | 8 µg/mL (≈ 20.3 µM) | CCc1[nH]c2nc(Sc3cc(=O)[nH]c(=O)[nH]3)nc(N3CC(O)C3)c2c1Cl [700,359]

Row | MIC, SA [1] | MIC Spn52 [2] | SMILES
18 | ≤ 0.5 µg/mL | 2 µg/mL (≈ 4.55 µM) | CCc1[nH]c2nc(Sc3cc(=O)[nH]c(=O)[nH]3)nc(N3CC(O)C3)c2c1Br [700,360]
19 | > 64 µg/mL | > 64 µg/mL | Cc1[nH]c2nc(Sc3cc(=O)[nH]c(=O)[nH]3)nc(N3CC(O)C3)c2c1Br [700,362]
20 | > 64 µg/mL | > 64 µg/mL | CCc1[nH]c2nc(Sc3cc(-n4cccn4)nc(C)n3)nc(NCC3CCCO3)c2c1Cl (centres unmarked) [700,373]
21 | 8 µg/mL (≈ 17 µM) | > 64 µg/mL | CCc1[nH]c2nc(Nc3cnc4c(cnn4C(C)C)c3)nc(N3CC(O)C3)c2c1Br [700,385]
22 | ≤ 0.5 µg/mL | 8 µg/mL (≈ 15.2 µM) | CCOC(=O)Cn1c(=O)cc(Sc2nc(N3CC(O)C3)c3c(Br)c(CC)[nH]c3n2)[nH]c1=O [700,386, Ethyl 2-(4-(5-bromo-6-ethyl-4-(3-hydroxyazetidin-1-yl)-7H-pyrrolo[2,3-d]pyrimidin-2-ylthio)-2,6-dioxo-2,3-dihydropyrimidin-1 (6H)-yl)acetate]
23 | ≤ 0.5 µg/mL | ≤ 0.5 µg/mL | CCc1[nH]c2nc(Sc3cnc4cccnc4n3)nc(N3CC(NC(=O)OCc4ccccc4)C3)c2c1Br [700,390]
24 | > 64 µg/mL | > 64 µg/mL | CCc1[nH]c2nc(Sc3nc(C(=O)O)c(Cl)s3)nc(N3CC(O)C3)c2c1Br [700,391]
25 | ≤ 0.5 µg/mL | ≤ 0.5 µg/mL | CCc1[nH]c2nc(Sc3cnc4nccnc4c3)nc(N3CC(O)C3)c2c1Br [700,392]
26 | ≤ 0.5 µg/mL | 1 µg/mL (≈ 2.42 µM) | CCc1[nH]c2nc(Sc3cnc4nccnc4c3)nc(N3CC(O)C3)c2c1Cl [700,393]
27 | > 64 µg/mL | > 64 µg/mL | CCc1[nH]c2nc(Sc3cc(=O)n(CC(=O)O)c(=O)[nH]3)nc(N3CC(O)C3)c2c1Br [700,402]
28 | 4 µg/mL (≈ 7.4 µM) | 8 µg/mL (≈ 14.8 µM) | CCc1[nH]c2nc(Sc3ccc4c(N5CCNCC5)ccnc4c3)nc(N3CC(O)C3)c2c1Br [700,403]
29 | ≤ 0.5 µg/mL | ≤ 0.5 µg/mL | CCc1[nH]c2nc(Sc3cnc4nccnc4c3)nc(N3CC(NC(=O)OCc4ccccc4)C3)c2c1Br [700,404]
30 | ≤ 0.5 µg/mL | 2 µg/mL (≈ 4.22 µM) | CCc1[nH]c2nc(Sc3cnc4c(c3)ncn4CC)nc(N3CC(O)C3)c2c1Br [700,405]
31 | > 64 µg/mL | > 64 µg/mL | CCc1[nH]c2nc(Sc3cc(=O)n(CCC4CCCCC4)c(=O)[nH]3)nc(N3CC(O)C3)c2c1Br [700,412]
32 | ≤ 0.5 µg/mL | 1 µg/mL (≈ 2.08 µM) | CCCn1c(=O)cc(Sc2nc(N3CC(O)C3)c3c(Br)c(CC)[nH]c3n2)[nH]c1=O [700,414]
33 | ≤ 0.5 µg/mL | 1 µg/mL (≈ 1.87 µM) | CCc1[nH]c2nc(Sc3cc(=O)n(CCC(F)(F)F)c(=O)[nH]3)nc(N3CC(O)C3)c2c1Br [700,415]
34 | ≤ 0.5 µg/mL | 2 µg/mL (≈ 4.05 µM) | CCc1[nH]c2nc(Sc3cc(=O)n(CC4CC4)c(=O)[nH]3)nc(N3CC(O)C3)c2c1Br [700,416]

Continued, compound first:

Row | SMILES | MIC, SA [1] | MIC Spn52 [2]
35 | CCOc1nc(Sc2ccc(NCCCOC)nn2)nc2[nH]c(CC)c(Cl)c12 [700,326] | > 64 µg/mL | 32 µg/mL (≈ 75.7 µM)
36 | CCOc1nc(Nc2cccnc2)nc2[nH]c(CC)c(Br)c12 [700,331] | 8 µg/mL (≈ 22.1 µM) | > 64 µg/mL
37 | CCc1[nH]c2nc(SC)nc(CCC3OCCCO3)c2c1Br [700,332] | > 64 µg/mL | > 64 µg/mL
38 | CCc1[nH]c2nc(SC)nc(CCCNCCN3CCOCC3)c2c1Br [700,334] | > 64 µg/mL | > 64 µg/mL
39 | CCc1[nH]c2nc(Sc3nc(C(=O)O)cs3)nc(N3CC(F)(F)C3)c2c1Cl.O=C(O)C(F)(F)F [700,338] | 8 µg/mL | 64 µg/mL
40 | CCOc1nc(Sc2nc(OC)c3cccnc3n2)nc2[nH]c(CC)c(Cl)c12 [700,339] | > 64 µg/mL | > 64 µg/mL
41 | CCc1[nH]c2nc(Sc3nc(C(=O)O)cs3)nc(NCCCNC(=N)N)c2c1Cl.O=C(O)C(F)(F)F [700,343] | > 64 µg/mL | > 64 µg/mL
42 | CCOc1nc(Nc2nc(C(=O)O)cs2)nc2[nH]c(CC)c(Br)c12.O=C(O)C(F)(F)F [700,350] | 32 µg/mL | 64 µg/mL
43 | CCOc1nc(Nc2cccc(C(=O)O)c2)nc2[nH]c(CC)c(Br)c12.O=C(O)C(F)(F)F [700,354] | 2 µg/mL | > 64 µg/mL
44 | CCc1[nH]c2nc(Sc3nc(-c4nnn[nH]4)cs3)nc(N3CC(O)C3)c2c1Cl.Cl.Cl.Cl.Cl [700,355] | > 64 µg/mL | > 64 µg/mL
45 | CCc1[nH]c2nc(Sc3nc(C(=O)O)cs3)nc(N3CCN(C(C)=O)CC3)c2c1Cl.O=C(O)C(F)(F)F [700,356] | > 64 µg/mL | > 64 µg/mL
46 | CCc1[nH]c2nc(Sc3nc(C(=O)O)cs3)nc(N3CCC(=O)C3)c2c1Cl.O=C(O)C(F)(F)F [700,357] | > 64 µg/mL | > 64 µg/mL
47 | CCOc1nc(Nc2cnc3ccccc3c2)nc2[nH]c(CC)c(Br)c12.O=C(O)C(F)(F)F [700,363] | > 64 µg/mL | > 64 µg/mL
48 | CCc1[nH]c2nc(Sc3nc(C(=O)NOC)cs3)nc(N3CCN(C(C)=O)CC3)c2c1Cl.O=C(O)C(F)(F)F [700,364] | 32 µg/mL | > 64 µg/mL
49 | CCc1[nH]c2nc(Sc3nc(C(=O)N4CCOCC4)cs3)nc(N3CCN(C(C)=O)CC3)c2c1Cl.O=C(O)C(F)(F)F [700,365] | > 64 µg/mL | > 64 µg/mL
50 | CCc1[nH]c2nc(Cn3cncn3)nc(N3CCN(C(C)=O)CC3)c2c1Br [700,374] | > 64 µg/mL | > 64 µg/mL
51 | CCOc1nc(Nc2cnc3cccnc3n2)nc2[nH]c(CC)c(Br)c12.Cl.Cl [700,378] | > 64 µg/mL | > 64 µg/mL
52 | CCOc1nc(Nc2cnc3c(cnn3C(C)C)c2)nc2[nH]c(CC)c(Br)c12.O=C(O)C(F)(F)F [700,381] | 1 µg/mL | 8 µg/mL
53 | CCc1[nH]c2nc(Sc3nc(-c4nnc(C)o4)cs3)nc(N3CC(O)C3)c2c1Cl.Cl.Cl.Cl [700,387] | 16 µg/mL | > 64 µg/mL
54 | CCOc1nc(Nc2ccc3cccnc3c2)nc2[nH]c(CC)c(Br)c12.O=C(O)C(F)(F)F [700,388] | 4 µg/mL | 16 µg/mL
55 | CCOc1nc(Nc2cc(OC)c(OC)c(OC)c2Br)nc2[nH]c(CC)c(Br)c12.O=C(O)C(F)(F)F [700,389] | > 64 µg/mL | > 64 µg/mL
56 | CCc1[nH]c2nc(Sc3nc(C(=O)O)co3)nc(N3CC(O)C3)c2c1Cl.O=C(O)C(F)(F)F.O=C(O)C(F)(F)F [700,395] | > 64 µg/mL | > 64 µg/mL
57 | CCc1[nH]c2nc(Sc3nc(C(=O)O)cs3)nc(N3CCOCC3)c2c1Cl.O=C(O)C(F)(F)F [700,396] | > 64 µg/mL | > 64 µg/mL
58 | CCc1[nH]c2nc(Sc3nc(C(=O)NOC)cs3)nc(N3CCOCC3)c2c1Cl.O=C(O)C(F)(F)F [700,397] | > 64 µg/mL | > 64 µg/mL
59 | CCc1[nH]c2nc(Sc3nc(C(=O)O)cs3)nc(N3CCNCC3)c2c1Cl.O=C(O)C(F)(F)F [700,398] | > 64 µg/mL | > 64 µg/mL
60 | CCOc1nc(Nc2cnc3c(cnn3C(C)C)c2)nc2[nH]c(CC)c(Cl)c12.O=C(O)C(F)(F)F [700,406] | 2 µg/mL | 16 µg/mL
61 | CCc1[nH]c2nc(Sc3nc(C(=O)O)cs3)nc(N(C)C)c2c1Cl.O=C(O)C(F)(F)F [700,407] | > 64 µg/mL | > 64 µg/mL
62 | CCc1[nH]c2nc(Sc3nc(C(=O)O)cs3)nc(N3CCCC(CO)C3)c2c1Cl.O=C(O)C(F)(F)F (centres unmarked) [700,408] | > 64 µg/mL | > 64 µg/mL
63 | CCc1[nH]c2nc(Oc3cccnc3)nc(Oc3cccnc3)c2c1Cl.O=C(O)C(F)(F)F [700,410] | 1 µg/mL | 4 µg/mL
64 | CCc1[nH]c2nc(Sc3cc(OC)nc(OC)n3)nc(N3CC(O)C3)c2c1Cl.Cl.Cl [700,411] | > 64 µg/mL | > 64 µg/mL
